According to paper PMC11448502, “Cryo-EM structures of the human P2X1 receptor reveal subtype-specific architecture and antagonism by supramolecular ligand-binding” (Nature Communications, 2024):

B1: full-length wild-type human P2X1 receptor (receptor, UniProt P51575 1-399, looked up)
chain: MARRFQEELAAFLFEYDTPRMVLVRNKKVGVIFRLIQLVVLVYVIGWVFLYEKGYQTSSGLISSVSVKLKGLAVTQLPGLGPQVWDVADYVFPAQGDNSFVVMTNFIVTPKQTQGYCAEHPEGGICKEDSGCTPGKAKRKAQGIRTGKCVAFNDTVKTCEIFGWCPVEVDDDIPRPALLREAENFTLFIKNSISFPRFKVNRRNLVEEVNAAHMKTCLFHKTLHPLCPVFQLGYVVQESGQNFSTLAEKGGVVGITIDWHCDLDWHVRHCRPIYEFHGLYEEKNLSPGFNFRFARHFVENGTNYRHLFKVFGIRFDILVDGKAGKFDIIPTMTTIGSGIGIFGVATVLCDLLLLHILPKRHYYKQKKFKYAEDMGPGAAERDLAATSSTLGLQENMRTS
modifications: N-linked glycosylation (N-acetylglucosamine modelled in the extracellular domain, e.g. at N184)
notes: human P2X1 receptor (P2X purinoceptor 1), full-length wild type, no mutations or truncations; Cytoplasmic N- and C-terminal residues are not visible in the maps; also called hP2X1; hP2X1-WT; source: HEK293 GNTI- cells, BacMam baculovirus transduction; solubilised in DDM/CHS, purified (TALON resin, HRV 3C protease digestion, SEC on Superdex 200 increase)

Legend:
P2X1 = conditions: reviewer comment, no reference given; cited from earlier work
[1] = target: the molecule itself; assay: cryo-EM structure; single particle cryo-EM of purified hP2X1 in C12M (DDM)/CHS, 20 mM HEPES pH 7.0, 100 mM NaCl, 5 mg/mL; three states: apo closed, ATP-bound desensitized (endogenous ATP), NF449-bound inhibited (400 uM NF449)

| Molecule | potency for P2X1 relative to P2X3 (P2X1) [times] | stoichiometry N [1] |
| --- | --- | --- |
| Nc1ncnc2c1ncn2[C@@H]1O[C@H](COP(=O)(O)CP(=O)(O)OP(=O)(O)O)[C@@H](O)[C@H]1O [α, β-MeATP] | 10 |  |
| B1 |  | 3 |
